Patent US20240207282A1, “METHOD OF INCREASING CHAPERONE MEDIATED AUTOPHAGY BY STABILIZING THE INTERACTION OF RETINOIC ACID RECEPTOR-ALPHA AND AN INHIBITOR” (ALBERT EINSTEIN COLLEGE OF MEDICINE, priority 2021, published 2024)
Each block holds one compound with its values, some of them ahead of it.

How the values were obtained:
CMA network = experiment: Comparative transcriptomic analysis / qPCR of CMA network; format: cell-based, mouse; conditions: for changes in the transcriptome: treated cells
Protocol: mRNA-qPCR: RNA was extracted from individual retinas. Total RNA from retinas was extracted using TRIzol Reagent (Invitrogen), and reverse transcription performed using the High-Capacity cDNA Reverse Transcription Kit (Applied Biosystems) according to the manufacturer's instructions. Quantitative real-time PCR was performed in a Light Cycler 480 Instrument (Roche) with Taqman Universal PCR Master Mix using Taqman assays (Life Tech-nologies). The following probes were used: Mm01184405_m1 (rhodopsin), F-5′-CTTAGCTTCTGGGATGC CCC-3′, R-5′-[…]-3′ (lamp2a) F-5′-AA GGACTCCTA TAGTGGG TGACGA-3′, R-5′-[…]-3′ (mouse β-actin).
Microarray: Total RNA of the treated cells was extracted using TRIzol (Invitrogen) and purified with RNeasy chromatography (Qiagen). Cy3-labeled RNA (0.6 μg) from each condition were hybridized to Agilent Mouse 8×60K. Data were processed using the oligo package and normalized using Robust Multiarray Average (RMA) method. Gene set was filtered to remove genes without Entrez or GO annotation (21912 genes out of 55682) and genes with an […]. The full microarray Gomez-Sintes et al. raw data will be deposited in GEO upon acceptance of the manuscript. Pathway analysis was performed using the STRING database ([…]).
CMA index was calculated using data set from Ly (J. Proteome Research (2016) 15: 1350-1359), Gao (2020), and Lane (2020). Briefly, each element of the CMA network was attributed a weight. As LAMP-2A is the rate limiting component of CMA, it was given a weight of 2. Every other element received a weight of 1. Then, every element was attributed direction score that is +1 or −1 based on the known effect of a given element on CMA activity. The score was then calculated as the weighted/directed average of expression counts of every element of the CMA network.

human cells = experiment: CMA activity, KFERQ-PS-Dendra reporter in human cells; format: cell-based
Protocol: Cells: NIH3T3 mouse fibroblasts and the N2a neuroblastoma cell line were obtained from the American Type Culture Collection and were validated by genomic PCR. Primary human fibroblasts (GM01651) were from Coriell Repository. All the cells lines were tested for mycoplasma contamination using DNA staining protocol with Hoechst 33258 dye. Knock-down of NCoR1 was done using lentiviral mediated shRNA (SHCLNG-NM_011308) from the Sigma Mission library following standard procedures. Efficiency of knock-down was tested by immunoblot. Cell viability was measured using the CellTiter-Blue kit (Promega) 24 h after the addition of the different stressors according to manufacturer's instructions.
CMA activity: Cells were transduced with lentivirus carrying the KFERQ-PS-Dendra reporter as before. Cells were photoactivated by exposure to a 3.5 mA (current constant) light emitting diode (LED: Norlux, 405 nm) for 3 min and then plated in glass-bottom 96 well plates. At the desired times, cells were fixed with 4% PFA and imaged using high-content microscopy (Operetta system, Perkin Elmer). Images were quantified using the manufacturer's software in a minimum of 1,200 cells in 9 independent fields per well. […] To avoid con-funding effects for drug-induced changes in cell volume or adherence to the plate that could bring a fraction of the cells per field outside of focus, we set a threshold to count only cells that have at least 1/10 of the average number of […] detected in the untreated wells for each cell type (3-4 puncta/cell in the case of NIH3T3 and N2a cells and 5 puncta/cell in primary human fibroblasts). […] Slices were mounted in DAPI-Fluoromount-G to highlight the cell nucleus and allow quantification of puncta per cell. Images were acquired in x-y-z planes with an Axiovert 200 fluorescence microscope (Carl Zeiss Ltd) with a ×63 objective and 1.4 numerical aperture, mounted with an ApoTome.2 slider or with a Confocal microscope (TCS SP5; Leica) using an HCX Plan Apo CS×63.0 1.40 NA oil objective and the Leica Application Suite X (LAS X).

NIH3T3 = experiment: Intracellular proteolysis of long half-life proteins (3H-leucine); format: cell-based, mouse; conditions: 10 μM; duration of increase after addition
Protocol: Proteolysis was calculated from aliquots of the medium taken at different times and precipitated in trichloroacetic acid, as the amount of acid-precipitable radioactivity transformed to acid-soluble radioactivity at each time.

[1] = Chronic toxicity in mice (blood count, histopathology); format: in vivo; conditions: chronic (5 months) daily oral administration
Protocol: Liver, lung and kidneys from CA-treated animals were dissected and fixed in 1% PFA overnight and paraffin embedded. Tissues were sectioned, stained with hematoxylin and eosin (H&E) and analyzed by an expert pathologist, blind to the treatment groups, to score for possible presence of toxicity in these organs. Scoring 1-6 was used assigning 6 to those observations clinically relevant. Individual scoring per parameter and per organ and average scoring per organ were performed. Blood cell count in the groups of mice administered vehicle or CA was analyzed in tail blood drawn monthly and at the moment of tissue dissection using an Oxford Science Forcyte Blood Analysis Unit.

[2] = Pharmacokinetics in mice (plasma and brain); format: in vivo, mouse; conditions: male, ICR (CD-1), mouse, po, administered orally
Protocol: ICR (CD-1) male mice were fasted at least three hours and water was available ad libitum before the study. Animals were housed in a controlled environment, target conditions: temperature 18 to 29° C., relative humidity 30 to 70%. Temperature and relative humidity was monitored daily. An electronic time controlled lighting system was used to provide a 12 hr light/12 hr dark cycle. 3 mice for each indicated time point were administered 30 mg/Kg CA39 or CA77 by oral gavage or 1 mg/Kg CA39 or CA77 by intravenous injection using 30% PEG-400, 65% D5W (5% dextrose in water), 5% Tween-80 vehicle. Mice were sacrificed, and brain samples were harvested at 0 hr, 0.25 hr, 0.5 hr, 1 hr, 2 hr, 4 hr, 8 hr, 24 hr, and analyzed for CA39 or CA77 levels using LC-MS/MS. Pharmacokinetics parameters were calculated using Phoenix WinNonlin 6.3. Experiments performed at SIMM-SERVIER joint Biopharmacy Laboratory.

cellular RARα and NCoR1 = target: T1, cellular RARα and NCoR1 (Mus musculus, UniProt P11416); experiment: Streptavidin pulldown of RARα and NCoR1 with biotinylated CA compound; format: binding; conditions: NIH3T3, 10 μM, 24 h
T1 construct: endogenous in cells; host or cells: NIH3T3
T1 sequence (P11416 whole entry): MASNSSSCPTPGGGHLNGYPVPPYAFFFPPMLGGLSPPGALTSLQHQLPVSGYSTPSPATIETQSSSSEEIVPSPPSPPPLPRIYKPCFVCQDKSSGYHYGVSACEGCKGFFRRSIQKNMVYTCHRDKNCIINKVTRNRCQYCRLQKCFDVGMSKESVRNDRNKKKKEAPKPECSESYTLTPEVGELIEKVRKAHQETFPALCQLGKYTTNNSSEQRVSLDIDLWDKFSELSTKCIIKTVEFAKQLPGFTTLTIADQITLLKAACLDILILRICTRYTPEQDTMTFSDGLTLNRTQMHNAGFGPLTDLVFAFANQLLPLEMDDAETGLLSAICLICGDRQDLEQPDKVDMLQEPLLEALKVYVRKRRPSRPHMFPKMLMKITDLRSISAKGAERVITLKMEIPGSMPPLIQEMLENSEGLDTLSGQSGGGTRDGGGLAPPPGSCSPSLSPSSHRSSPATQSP
T1 sequence (Q60974 whole entry partner): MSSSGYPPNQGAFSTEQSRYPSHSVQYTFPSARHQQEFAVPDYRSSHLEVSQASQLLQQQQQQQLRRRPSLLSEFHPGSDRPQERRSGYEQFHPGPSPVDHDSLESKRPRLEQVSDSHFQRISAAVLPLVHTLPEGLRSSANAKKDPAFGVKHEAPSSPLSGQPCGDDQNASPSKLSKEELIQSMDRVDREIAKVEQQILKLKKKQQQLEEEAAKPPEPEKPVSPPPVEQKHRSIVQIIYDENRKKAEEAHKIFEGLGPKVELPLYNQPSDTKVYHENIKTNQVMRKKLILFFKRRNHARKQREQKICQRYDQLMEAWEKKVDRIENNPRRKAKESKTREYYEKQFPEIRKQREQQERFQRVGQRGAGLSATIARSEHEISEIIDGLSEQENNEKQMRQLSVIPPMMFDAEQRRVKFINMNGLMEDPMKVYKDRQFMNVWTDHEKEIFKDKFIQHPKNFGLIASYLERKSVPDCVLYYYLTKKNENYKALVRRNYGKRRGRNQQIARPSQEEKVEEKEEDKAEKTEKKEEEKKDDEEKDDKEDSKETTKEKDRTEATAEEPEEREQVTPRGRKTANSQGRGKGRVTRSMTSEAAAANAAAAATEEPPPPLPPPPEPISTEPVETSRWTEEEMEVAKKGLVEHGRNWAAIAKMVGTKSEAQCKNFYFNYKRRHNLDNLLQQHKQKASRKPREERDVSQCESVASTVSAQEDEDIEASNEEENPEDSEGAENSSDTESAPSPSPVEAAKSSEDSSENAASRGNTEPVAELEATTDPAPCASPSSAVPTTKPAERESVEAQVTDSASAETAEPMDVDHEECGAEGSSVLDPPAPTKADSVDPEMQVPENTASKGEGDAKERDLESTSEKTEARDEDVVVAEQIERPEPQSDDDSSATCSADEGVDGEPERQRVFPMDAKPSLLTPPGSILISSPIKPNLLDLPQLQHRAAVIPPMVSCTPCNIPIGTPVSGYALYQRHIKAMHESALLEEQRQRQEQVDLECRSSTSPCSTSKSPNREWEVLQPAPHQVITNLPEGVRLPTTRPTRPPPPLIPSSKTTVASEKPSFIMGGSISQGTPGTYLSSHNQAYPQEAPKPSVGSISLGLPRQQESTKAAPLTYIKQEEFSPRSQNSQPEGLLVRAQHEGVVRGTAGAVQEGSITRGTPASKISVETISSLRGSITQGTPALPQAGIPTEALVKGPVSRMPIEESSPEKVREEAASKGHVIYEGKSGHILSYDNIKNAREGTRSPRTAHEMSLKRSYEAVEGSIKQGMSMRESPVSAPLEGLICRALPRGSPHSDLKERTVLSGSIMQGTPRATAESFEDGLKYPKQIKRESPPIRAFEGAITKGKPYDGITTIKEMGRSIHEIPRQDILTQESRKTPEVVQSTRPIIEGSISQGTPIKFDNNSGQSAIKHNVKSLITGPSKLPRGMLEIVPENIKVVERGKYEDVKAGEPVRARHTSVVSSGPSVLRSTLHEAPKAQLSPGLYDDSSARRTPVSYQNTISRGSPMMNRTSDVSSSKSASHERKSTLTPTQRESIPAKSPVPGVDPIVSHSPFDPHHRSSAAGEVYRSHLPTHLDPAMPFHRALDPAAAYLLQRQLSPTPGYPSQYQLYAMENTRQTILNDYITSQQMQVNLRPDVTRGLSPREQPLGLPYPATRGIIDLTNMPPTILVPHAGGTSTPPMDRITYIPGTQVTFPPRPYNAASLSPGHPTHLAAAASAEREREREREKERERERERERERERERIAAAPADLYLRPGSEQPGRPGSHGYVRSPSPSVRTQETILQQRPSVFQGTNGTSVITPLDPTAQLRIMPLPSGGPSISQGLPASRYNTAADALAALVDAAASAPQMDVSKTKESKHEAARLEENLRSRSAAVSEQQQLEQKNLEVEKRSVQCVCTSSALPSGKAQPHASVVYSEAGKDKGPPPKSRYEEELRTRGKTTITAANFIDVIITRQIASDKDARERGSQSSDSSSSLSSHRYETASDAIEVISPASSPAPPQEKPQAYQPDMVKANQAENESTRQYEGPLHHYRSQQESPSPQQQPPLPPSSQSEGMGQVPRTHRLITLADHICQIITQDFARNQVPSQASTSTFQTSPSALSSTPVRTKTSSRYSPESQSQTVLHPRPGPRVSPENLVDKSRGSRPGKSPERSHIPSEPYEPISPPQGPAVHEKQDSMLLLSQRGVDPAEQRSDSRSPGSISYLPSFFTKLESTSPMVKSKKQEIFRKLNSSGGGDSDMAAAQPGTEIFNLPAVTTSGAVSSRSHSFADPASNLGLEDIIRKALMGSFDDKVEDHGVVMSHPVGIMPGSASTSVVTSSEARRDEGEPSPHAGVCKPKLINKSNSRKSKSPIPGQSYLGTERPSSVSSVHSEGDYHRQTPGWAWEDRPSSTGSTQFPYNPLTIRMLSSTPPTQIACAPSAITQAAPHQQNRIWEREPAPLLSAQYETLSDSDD

SMILES: Cc1ccc(C2=Nc3ccc(Cl)cc3OC2)cc1 [AR7, reference compound]
number of CMA network components with changed expression (CMA network; of the 17 currently accepted components): 8
changes in the transcriptome (CMA network): only induced changes in the expression of a discrete fraction of genes
CMA activation (human cells): very discrete
intracellular rates of degradation of long-lived proteins (NIH3T3): sustained only for the first 12 h after addition of the compound

SMILES: CC1(C)CC=C(c2cnc3ccccc3c2)c2cc(C(=O)Nc3ccc(C(=O)O)cc3)ccc21 [BMS614]
changes in the transcriptome (CMA network): marked changes in the transcriptome

SMILES: CC(=O)Nc1ccc(-c2cnc3cc(Cl)ccc3n2)cc1 [CA77.1]
peripheral blood or major organ toxicity [1]: lack of peripheral blood or major organ (liver, lung, kidney) toxicity
Kp ([2]; brain/plasma, read-out: AUC brain/plasma): 5.73
half-life ([2]; plasma, read-out: Plasma half-life (converted)): 3 h

co-immunoprecipitation of cellular RARα and NCoR1 (cellular RARα and NCoR1): could be co-immunoprecipitated
SMILES: O=C(CCCC[C@H]1SCC2NC(=O)NC21)NCCCOCCOCCOCCCNC(=O)c1ccc(C2=Nc3ccc(Cl)cc3OC2)cc1 (stereo partly drawn) [biotinylated CA compound]
